{"source": "patent US8906953B2", "about": "“Pyrrolidine substitute flavones for the treatment of inflammatory disorders” (Piramal Enterprises Limited, priority 2010, dated 2014)", "key": {"[1]": {"test_system": "synovial fluid mononuclear cells (SFMC)", "assay": "Induction of apoptosis in synovial fluid mononuclear cells (Annexin-V/PI)", "assay_type": "cell-based, human", "conditions": "adherent and non-adherent SFMC from RA patients, 5 μM and 10 μM, 24 hours", "method": "The assay was designed as in reference, Arthritis and Rheumatism, Vol. 52, No. 1, January 2005, the disclosure of which is incorporated herein by reference for the teaching of the assay.\nSynovial fluid was collected from rheumatoid arthritis patients under going knee aspiration. The fluid was collected in vacutainers and processed within 2 hours of collection. SFMC were isolated using gradient centrifugation using Ficoll-Hypaque solution (Sigma). Isolated SFMC were suspended in RPMI 1640 (Rosewell Park Memorial Institute) culture medium (Sigma-Aldrich Fine Chemicals, USA) containing 20% fetal bovine serum (FBS) (JRH, USA), 100 U/ml penicillin (Sigma Chemical Co. St Louis, Mo.) and 100 μg/mL streptomycin (Sigma Chemical Co. St Louis, Mo.). The cell concentration was adjusted to 1×10^6 cells/mL. The viability as determined by trypan blue dye exclusion was uniformly >98%. 4 mL of this cell suspension was added to each well of a 6-well plate. The SFMC were incubated for 3-4 hours. Non-adherent cells were removed and cultured separately in 6-well plates. Fresh medium was added to the adherent cells. After 24 hours incubation in a humidified atmosphere at 37° C. in 5% CO2, non-adherent cells were removed and pooled with previous days samples. These cells were plated at a density of 2×10^6 cells/well. The adherent cell population was re-fed fresh complete medium. […]"}, "[2]": {"test_system": "arthritic (CIA) DBA/1J mice", "assay": "Collagen induced arthritis in mouse", "assay_type": "in vivo", "conditions": "50 mg/kg oral twice daily, 23 days", "method": "The assay was designed as in reference, J. Exp. Med., 1985, 162, 637-646, the disclosure of which is incorporated herein by reference for the teaching of the assay.\nMale DBA/1J mice (originally procured from Jackson Laboratories, USA), aged 8-10 weeks were immunized with an emulsion equivalent to 200 μg of type II collagen in Freund's Complete Adjuvant, injected intradermally at the base of the tail. A booster shot with the same emulsion was given 21 days later. A group of naïve mice was maintained alongside.\nFrom day 23 to day 56, mice were examined daily once for the signs of rheumatoid arthritis, using the Articular Index and paw thickness as parameters. Articular Index scoring was performed employing the following criteria:\nMice with a minimum hind paw score of 2 were inducted into the study.\nMice were randomized into the various study groups and orally administered the vehicle (0.5% CMC, 1 ml/kg), test compound (compound of example 3, 50 mg/kg twice daily) and standard compound (Enbrel, 3 mg/kg, s.c., once daily). […] The dosing of the compounds was done for 23 days.\nThe following parameters were observed and recorded daily, • 1. Body weight • 2. Articular index • 3. Paw thickness in mm using a tension free caliper • 4. Any significant observation regarding the condition of the animal. […]\nThe results are graphically depicted in FIG. 3 (Articular index versus days of treatment) and FIG. 4 (Paw thickness versus days of treatment). Data obtained during the course of this study (articular index and paw thickness) was statistically evaluated by applying Mann-Whitney U test.\nMice were humanely euthanized and the hind paws were harvested from each animal, fixed in 10% neutral buffered formalin, decalcified in 5% formic acid and embedded in paraffin. Section […] were stained with either hematoxylin and eosin or safranin 0 and evaluated microscopically. Histopathological changes were scored as follows: mild (score=1), moderate (score=2) or severe (score=3) for the parameters of cellular infiltration, bone erosions and cartilage damage, graded separately. […]"}}}
{"smiles": "CN1CC[C@@H](c2c(O)cc(O)c3c(=O)cc(-c4ccc(C(F)(F)F)cc4Cl)oc23)[C@@H]1CO.Cl", "note": "[Compound of example 3, (+)-trans-2-(2-Chloro-4-trifluoromethyl-phenyl)-5,7-dihydroxy-8-(2-hydroxymethyl-1-methyl-pyrrolidin-3-yl)-chromen-4-one hydrochloride]", "values": [{"measurement": "Induction of apoptosis (Annexin-V/PI)", "setting": "[1]", "result": "induces apoptosis"}, {"measurement": "Severity of disease by articular index and paw thickness", "setting": "[2]", "result": "trend towards ameriolation of the disease"}, {"measurement": "Histopathological evaluation of hind paws", "setting": "[2]; cellular infiltration, bone erosions, cartilage damage", "result": "potential anti-arthritic effect"}]}
